Where a name gives a salt, the structure may show the parent alone. Where only a bound is given, the exact number is not on record here.

One data set is described as follows: in vitro. The settings on record: rat, gh3-tre-luc cells, AC50 (uM) modified / 1000.
Turning to `FC(F)C(F)(F)OCC(Cn1cncn1)c1ccc(Cl)cc1Cl` (stereo not shown) [Tetraconazole], the CC50 at 24 h was more than 90 µM.

Turning to `FC1(F)C(F)(F)C(F)(F)C2(F)C(F)(C1(F)F)C(F)(F)C(F)(F)C1(F)C(F)(F)C(F)(F)C(F)(F)C(F)(F)C12F` (stereo not shown) [Tetracosafluorotetradecahydrophenanthrene], the CC50 at 24 h is more than 80 µM.

As to `N#CC(C#N)=C(C#N)C#N` [Tetracyanoethylene], the CC50 at 24 h is more than 100 µM.

The compound `CN(C)[C@@H]1C(O)=C(C(N)=O)C(=O)[C@@]2(O)C(O)=C3C(=O)c4c(O)cccc4[C@@](C)(O)[C@H]3C[C@@H]12` [Tetracycline] gave a CC50 at 24 h of more than 90 µM.

In the case of `CCCCCCCCCCCCCC=O` [Tetradecanal], the CC50 at 24 h was more than 5 µM.

As for `CCCCCCCCCCCCCC` [Tetradecane], the CC50 at 24 h was more than 90 µM.

The compound `CCCCCCCCCCCCCC(=O)OCC(O)CO` (stereo not shown) [Tetradecanoic acid, 2,3-dihydroxypropyl ester] returned a CC50 at 24 h of more than 90 µM.

`CCCCCCCCCCCCCC(=O)O` [Tetradecanoic acid]: the CC50 at 24 h is more than 90 µM.

Compound `CCCCCCCCCCCCCC[n+]1ccccc1` [Tetradecylpyridinium bromide] registered a CC50 at 24 h of 6.51 µM.

The compound `O=S(=O)(c1ccc(Cl)cc1)c1cc(Cl)c(Cl)cc1Cl` [Tetradifon] displayed a CC50 at 24 h of 60.5 µM.

Consider `CC[N+](CC)(CC)CC` [Tetraethylammonium chloride], for which the CC50 at 24 h was more than 100 µM.

`CCCCC(CC)C(=O)OCCOCCOCCOCCOC(=O)C(CC)CCCC` (stereo not shown) [Tetraethylene glycol di(2-ethylhexanoate)] gave a CC50 at 24 h of more than 90 µM.

Take `C=C(C)C(=O)OCCOCCOCCOCCOC(=O)C(=C)C` [Tetraethyleneglycol dimethacrylate]: the CC50 at 24 h is more than 90 µM.

In turn, `NCCNCCNCCNCCN` [Tetraethylenepentamine] registered a CC50 at 24 h of more than 90 µM.

For the compound `CCN(CC)C(=O)N(CC)CC` [Tetraethylurea], the CC50 at 24 h is more than 90 µM.

Turning to `O=C1CCCCO1` [Tetrahydro-2H-pyran-2-one], the CC50 at 24 h is more than 90 µM.

In turn, `CCCCCc1cc(O)c2c(c1)OC(C)(C)[C@@H]1CCC(C)=C[C@@H]21` [Tetrahydrocannabinol] had a CC50 at 24 h of 10.9 µM.

For `C1CCOC1` [Tetrahydrofuran], the CC50 at 24 h was more than 100 µM.

In the case of `C=CC(=O)OCC1CCCO1` (stereo not shown) [Tetrahydrofurfuryl acrylate], the CC50 at 24 h was more than 90 µM.

Turning to `OCC1CCCO1` (stereo not shown) [Tetrahydrofurfuryl alcohol], the CC50 at 24 h was more than 90 µM.

For `C=C(C)C(=O)OCC1CCCO1` (stereo not shown) [Tetrahydrofurfuryl methacrylate], the CC50 at 24 h was more than 90 µM.

For the compound `O=C1OC(=O)C2CC=CCC12` (stereo not shown) [Tetrahydrophthalic anhydride], the CC50 at 24 h was more than 90 µM.

Take `c1ccc2c(c1)CCCC2C1=NCCN1` (stereo not shown) [Tetrahydrozoline hydrochloride]: the CC50 at 24 h is more than 50 µM.

`IC(I)=C(I)I` [Tetraiodoethene]: the CC50 at 24 h was 8.53 µM.

In the case of `CC(C)OP(=O)(CP(=O)(OC(C)C)OC(C)C)OC(C)C` [Tetraisopropyl methylenediphosphonate], the CC50 at 24 h was more than 90 µM.

For `c1ccc2c(c1)CCCC2` [Tetralin], the CC50 at 24 h was more than 90 µM.

`CO[Si](OC)(OC)OC` [Tetramethyl orthosilicate] yielded a CC50 at 24 h of 81.5 µM.

On to `Cc1nc(C)c(C)nc1C` [Tetramethylpyrazine], for which the CC50 at 24 h was more than 90 µM.

The compound `C[Si](C)(C)C` [Tetramethylsilane] yielded a CC50 at 24 h of more than 90 µM.

`CCCCCCCC[P+](CCCCCCCC)(CCCCCCCC)CCCCCCCC` [Tetraoctylphosphonium bromide] yielded a CC50 at 24 h of 4.22 µM.

On to `CCCO[Si](OCCC)(OCCC)OCCC` [Tetrapropyl orthosilicate], for which the CC50 at 24 h was more than 90 µM.

Regarding `Clc1ccc(Sc2cc(Cl)c(Cl)cc2Cl)cc1` [Tetrasul], the CC50 at 24 h is more than 90 µM.

With `CNc1c2c(nn1C)CCCC2` [Tetridamine], the CC50 at 24 h is more than 50 µM.

`O=C1C(O)=C(O)C(=O)C(O)=C1O` [Tetroquinone] returned a CC50 at 24 h of more than 50 µM.

On to `O=C1CCC(N2C(=O)c3ccccc3C2=O)C(=O)N1` (stereo not shown) [Thalidomide], for which the CC50 at 24 h is more than 90 µM.

In turn, `CC1(C)[C@@H]2CC[C@@]1(C)[C@H](OC(=O)CSC#N)C2` [Thanite] registered a CC50 at 24 h of more than 50 µM.

In the case of `CC1=CCCC(C)(C)C12CCC(C)O2` (stereo not shown) [Theaspirane], the CC50 at 24 h was more than 90 µM.

Take `CN1CCC(N(Cc2cccs2)c2ccccc2)CC1` [Thenalidine]: the CC50 at 24 h was 27 µM.

`Cn1cnc2c1c(=O)[nH]c(=O)n2C` [Theobromine] gave a CC50 at 24 h of more than 40 µM.

In turn, `Cn1c(=O)c2[nH]cnc2n(C)c1=O` [Theophylline] had a CC50 at 24 h of more than 90 µM.

For `c1ccc2[nH]c(-c3cscn3)nc2c1` [Thiabendazole], the CC50 at 24 h is more than 50 µM.

In turn, `N#C/N=C1\SCCN1Cc1ccc(Cl)nc1` [Thiacloprid] came in with a CC50 at 24 h of more than 90 µM.

In the case of `CN1COCN(Cc2cnc(Cl)s2)/C1=N/[N+](=O)[O-]` [Thiamethoxam], the CC50 at 24 h is more than 90 µM.

The compound `C/C(=C(\CCO)SS/C(CCO)=C(/C)N(C=O)Cc1cnc(C)nc1N)N(C=O)Cc1cnc(C)nc1N` [Thiamine disulfide] showed a cytotoxic concentration (CC50) at 24 h of more than 50 µM.

Compound `Cc1ncsc1CCO` [Thiamine thiozole] returned a CC50 at 24 h of more than 90 µM.

In turn, `CS(=O)(=O)c1ccc([C@@H](O)[C@@H](COC(=O)CN)NC(=O)C(Cl)Cl)cc1` [Thiamphenicol glycinate hydrochloride] came in with a CC50 at 24 h of more than 50 µM.

`CCSc1ccc2c(c1)N(CCCN1CCN(C)CC1)c1ccccc1S2` [Thiethylperazine malate] yielded a 50% cytotoxic concentration (CC50) at 24 h of more than 20 µM.

Consider `COC(=O)c1sccc1S(=O)(=O)NC(=O)Nc1nc(C)nc(OC)n1` [Thifensulfuron-methyl], for which the CC50 at 24 h was more than 90 µM.

`CC(=N)S` [Thioacetamide] had a CC50 at 24 h of more than 90 µM.

In turn, `CCN(CC)C(=O)SCc1ccc(Cl)cc1` [Thiobencarb] returned a CC50 at 24 h of more than 90 µM.

The compound `NNC(=S)NN` [Thiocarbazide] displayed a CC50 at 24 h of more than 90 µM.

For the compound `COc1c(O[C@@H]2O[C@H](CO)[C@@H](O)[C@H](O)[C@H]2O)cc2c(c1OC)-c1ccc(SC)c(=O)cc1[C@@H](NC(C)=O)CC2` [Thiocolchicoside], the CC50 at 24 h was more than 20 µM.

Compound `CN(C)C1CSSSC1` [Thiocyclam oxalate] returned a CC50 at 24 h of more than 90 µM.

With `CS/C(C)=N\OC(=O)N(C)SN(C)C(=O)O/N=C(\C)SC` [Thiodicarb], the CC50 at 24 h is 39.7 µM.

On to `O=C(CS)Nc1ccccc1` [Thioglycolic acid anilide], for which the CC50 at 24 h is 33.8 µM.

Turning to `O=C(O)CS` [Thioglycolic acid], the CC50 at 24 h is more than 90 µM.

In turn, `OC[C@H]1O[C@@H](n2cnc3c(S)ncnc32)[C@H](O)[C@@H]1O` [Thioinosine] registered a CC50 at 24 h of more than 50 µM.

As to `CCCC(C)C1(CC)C(=O)NC(=S)NC1=O` (stereo not shown) [Thiopental sodium], the CC50 at 24 h was more than 50 µM.

As to `COC(=O)NC(=S)Nc1ccccc1NC(=S)NC(=O)OC` [Thiophanate-methyl], the cytotoxic concentration (CC50) at 24 h is more than 90 µM.

`CCOC(=O)NC(=S)Nc1ccccc1NC(=S)NC(=O)OCC` [Thiophanate] returned a CC50 at 24 h of more than 90 µM.

The compound `c1ccsc1` [Thiophene] yielded a CC50 at 24 h of more than 90 µM.

As to `CN1CCN(CCCN2c3ccccc3Sc3ccc(S(=O)(=O)N(C)C)cc32)CC1` [Thioproperazine dimethanesulfonate], the CC50 at 24 h was found to be 14.2 µM.

In the case of `CSc1ccc2c(c1)N(CCC1CCCCN1C)c1ccccc1S2` (stereo not shown) [Thioridazine hydrochloride], the midpoint of cytotoxicity, the CC50 at 24 h, lay at 7.04 µM.

On to `NNC(N)=S` [Thiosemicarbazide], for which the CC50 at 24 h was more than 100 µM.

For `S=P(N1CC1)(N1CC1)N1CC1` [Thiotepa], the CC50 at 24 h was more than 100 µM.

Still in this data set, the particulars now being: rat, gh3-tre-luc cells, AC50 (uM) modified / 1000, Tox21_110001=Tox21_111517; viability, 1 nM T3 present, 24 h.
With `C=CCC1(C(C)CCC)C(=O)N=C(S)NC1=O` (stereo not shown) [Thiamylal sodium], the CC50 at 24 h is more than 50 µM.

The data set is the same for the next values; noted with them: rat, gh3-tre-luc cells, AC50 (uM) modified / 1000, Tox21_110001=Tox21_111751; viability, 1 nM T3 present, 24 h.
For the compound `COC1=CC=C2[C@H]3Cc4ccc(OC)c5c4[C@@]2(CCN3C)[C@H]1O5` [Thebaine], the CC50 at 24 h was more than 20 µM.

Still in this data set, the particulars now being: rat, gh3-tre-luc cells, AC50 (uM) modified / 1000, Tox21_110001=Tox21_112623; viability, 1 nM T3 present, 24 h.
The compound `CC(C)=CC1C(C(=O)OCN2C(=O)C3=C(CCCC3)C2=O)C1(C)C` (stereo not shown) [Tetramethrin] registered a CC50 at 24 h of more than 50 µM.

The same data set, now with this note: rat, gh3-tre-luc cells, AC50 (uM) modified / 1000, Tox21_110001=Tox21_112863; viability, 1 nM T3 present, 24 h.
`COC1=CC=C2[C@H]3Cc4ccc(OC)c5c4[C@@]2(CCN3C)[C@H]1O5` [Thebaine] had a CC50 at 24 h of more than 90 µM.

Staying with this data set, now noted: rat, gh3-tre-luc cells, AC50 (uM) modified / 1000, Tox21_110001=Tox21_200573; viability, 1 nM T3 present, 24 h.
In the case of `CC(C)(C#N)C(C)(C)C#N` [Tetramethylsuccinonitrile], the CC50 at 24 h was more than 90 µM.

Staying with this data set, now noted: rat, gh3-tre-luc cells, AC50 (uM) modified / 1000, Tox21_110001=Tox21_200660; viability, 1 nM T3 present, 24 h.
`C[N+](C)(C)C` [Tetramethylammonium chloride] showed a CC50 at 24 h of more than 90 µM.

The data set is the same for the next values; noted with them: rat, gh3-tre-luc cells, AC50 (uM) modified / 1000, Tox21_110001=Tox21_200928; viability, 1 nM T3 present, 24 h.
As for `OC[P+](CO)(CO)CO` [Tetrakis(hydroxymethyl)phosphonium sulfate], the CC50 at 24 h is more than 90 µM.

Staying with this data set, now noted: rat, gh3-tre-luc cells, AC50 (uM) modified / 1000, Tox21_110001=Tox21_300651; viability, 1 nM T3 present, 24 h.
`O=C(Nc1ccccc1)Nc1cnns1` [Thidiazuron] gave a CC50 at 24 h of more than 90 µM.

The same data set, now with this note: rat, gh3-tre-luc cells, AC50 (uM) modified / 1000, Tox21_110001=Tox21_300822; viability, 1 nM T3 present, 24 h.
In turn, `COC(=O)c1c(C(F)F)nc(C(F)(F)F)c(C2=NCCS2)c1CC(C)C` [Thiazopyr] came in with a cytotoxic concentration (CC50) at 24 h of more than 90 µM.

The data set is the same for the next values; noted with them: rat, gh3-tre-luc cells, AC50 (uM) modified / 1000, Tox21_110001=Tox21_301017; viability, 1 nM T3 present, 24 h.
In turn, `CC(C)=CC1C(C(=O)OCN2C(=O)C3=C(CCCC3)C2=O)C1(C)C` (stereo not shown) [Tetramethrin] registered a CC50 at 24 h of more than 90 µM.

The same data set, now with this note: rat, gh3-tre-luc cells, AC50 (uM) modified / 1000, Tox21_110001=Tox21_301172; viability, 1 nM T3 present, 24 h.
In the case of `CCOP(=O)(OCC)OP(=O)(OCC)OCC` [Tetraethyl pyrophosphate], the CC50 at 24 h was more than 90 µM.

By CC50 is commonly meant the concentration at which the toxic effect on the cells reaches its halfway point. Lower therefore signals greater toxicity to the cells.
